Consider two compounds from patent publication US9832992B1, “Microbicidal composition” (Dow Global Technologies LLC, priority 2013, dated 2017).

Like-named read-outs stand apart in the source and are kept apart here.

Usually MIC stands for the lowest concentration that inhibits growth of the organism.

Common to all, as to format: cell-based
Test [1] has as its system Aspergillus niger ATCC#16404. Kind of test: MIC / synergy index test in 96 well microtiter plates, mold. Here is the method: (§1) Surfactants and biocides were evaluated for synergy by determining the synergy index (S.I.) of the combination. Synergy index was calculated based on minimum inhibitory concentrations (MIC) of two antimicrobial compounds (A and B) alone and in combinations. The tests organisms were Gram negative bacteria (Pseudomonas aeruginosa ATCC #15442), Gram positive bacteria (Staphylococcus aureus ATCC #6538), yeast (Candida albicans ATCC#10203) and mold (Aspergillus niger ATCC#16404). Contact time for the bacteria was 24 and 48 hours, yeast was 48 and 72 hrs, and 3 and 7 days for mold. The test was carried out in 96 well microtiter plates.
(§2) SI is calculated as follows: Ca/CA+Cb/CB=Synergy Index (“SI”)
(§3) Wherein: • CA=concentration of compound A in ppm, acting alone, which produced an end point (MIC of Compound A). • Ca=concentration of compound A in ppm, in the mixture, which produced an end point. • CB=concentration of compound B in ppm, acting alone, which produced an end point (MIC of Compound B). • Cb=concentration of compound B in ppm, in the mixture, which produced an end point. When the sum of Ca/CA and Cb/CB is greater than one, antagonism is indicated.

Test [2] relates to Staphylococcus aureus ATCC #6538. Description: MIC / synergy index test in 96 well microtiter plates, Gram positive bacteria. On the procedure: as §1, §2, §3
Test [3] concerns Candida albicans ATCC#10203. Description: MIC / synergy index test in 96 well microtiter plates, yeast. On the procedure: as §1, §2, §3
Test [4] relates to Pseudomonas aeruginosa ATCC #15442. Description: MIC / synergy index test in 96 well microtiter plates, Gram negative bacteria. On the procedure:
as §1, §2, §3

Take `O=[N+]([O-])C(Br)(CO)CO` [BNPD, 2-bromo-2-nitropropane-1,3-diol]: the MIC in test [1] (Aspergillus niger, ATCC16404; read-out: CB (MIC of compound B alone)) came out at 1000 µg/mL; in test [2] (Staphylococcus aureus, ATCC6538, 24 h; read-out: CB (MIC of compound B alone)), 20 µg/mL; in test [3] (Candida albicans, ATCC10203, 48 h; read-out: CB (MIC of compound B alone)) it was 1000 µg/mL; in test [4] (Pseudomonas aeruginosa, ATCC15442, 24 h; read-out: CB (MIC of compound B alone)), 10 µg/mL. The “CB (MIC of compound B alone)” value in test [2] (B: BNPD; table with Surf. E; 24 hrs; Media: 1/10 TSB; Inoculum size: 1.808E+06 CFU/ml) came to 20 ppm; in test [3] (B: BNPD; table with Surf. E; 48 hrs; Media: PDB; Inoculum size: 1.808E+06 CFU/ml) it was 1000 ppm; in test [4] (B: BNPD; table with Surf. D; 24 hrs; Media: 1/10 TSB; Inoculum size: 1.16E+08), 10 ppm; in test [4] (B: BNPD; table with Surf. E; 24 hrs; Media: 1/10 TSB; Inoculum size: 5.727E+07 CFU/ml), 10 ppm.

As to `CN1CSC(=S)N(C)C1` [DAZOMET, tetrahydro-3,5-dimethyl-2H-1,3,5-thiadiazine-2-thione], the “CB: MIC of B (DAZOMET) alone” value in test [1] (A. niger ATCC #16404; 3rd day; Media: PDB; Inoculum size: 1.156E+06; table with A: Surf. E) is recorded as 30 PPM AI; in test [1] (A. niger ATCC #16404; 3rd day; Media: PDB; Inoculum size: 1.56E+06; table with A: Surf. D), 40 PPM AI. Also, the MIC in test [1] (Aspergillus niger, ATCC16404, read-out: CB (MIC of compound B alone)) was determined as 60 µg/mL; in test [2] (Staphylococcus aureus, ATCC6538, 24 h, read-out: CB (MIC of compound B alone)), 200 µg/mL; in test [3] (Candida albicans, ATCC10203, 48 h, read-out: CB (MIC of compound B alone)) it was 50 µg/mL; in test [4] (Pseudomonas aeruginosa, ATCC15442, 24 h, read-out: CB (MIC of compound B alone)), 80 µg/mL. Besides, the “CB: MIC of B alone” value in test [2] (B: DAZOMET alone; 24 hrs; Media 1/10 TSB; inoculum 5.72E+05) came to 200 PPM AI. Besides, in test [3] (B: DAZOMET; table with Surf. D; 48 hrs; Media: PDB; Inoculum size: 5.72E+05), the “CB (MIC of compound B alone)” value came out at 50 ppm.
